Test results published in patent US8168628B2, “Conjugated psychotropic drugs and uses thereof” (Ramot at Tel-Aviv University Ltd., priority 2001, dated 2012).
Like-named read-outs stand apart in the source and are kept apart here.

Experiments:
MES SA DX5 (MDR) = experiment: Proliferation test, MES SA DX5 (MDR) cells; type: cell-based; settings: Homo sapiens, linear regression of survival percentage
Method: (§1) Cell lines: Human prostate carcinoma (PC-3), human colon carcinoma (HT-29), murine melanoma (B-16) and its drug resistant subclone (B-16 MDR), mouse fibroblasts (3T3), myeloid leukemia (HL 60) and its drug resistant subclone (HL 60 MX2), endometrium cell line (MES SA) and its drug resistant subclone (MES DX5), jurkat T lymphoma and monocyte leukemia (U-937), were used in this study.
(§2) Proliferation of cancer and normal cells: Proliferation was measured by neutral red assay or by a fluorometric assay quantitating DNA content. In the neutral red assay, the neutral red is absorbed by lysosomes, thus causing coloring of living cells. Quantitative analysis is performed by colorimetric assay (ELISA reader at 550 nm). In the fluorometric assay, alamar blue is used as a redox indicator. Alamar blue fluorescence was measured at an excitation wavelength of 544 nm and an emission wavelength of […] (FLUOstar BMG Lab Technologies, Offenburg, Germany).
(§3) The cells were sub-cultured and the tested compounds were added thereto in increasing concentrations. The IC50 values were determined by linear regression of the survival percentage of the cells.

rats [1] = experiment: Catalepsy in rats, “wall” test
Method: (§6) Animals: Young adult male rats (150-230 grams) were purchased from Harlan (Israel). Animals were divided 2-5/cage and housed in controlled conditions in the animal room for a week prior to the experiments. The experiments were conducted with naive animals, in a double blind procedure. In each experiment various treatment groups (about 5-10 animals each) were tested.
(§7) Catalepsy in rats: The manifestation of the extrapyramidal adverse effects induced by typical neuroleptics was evaluated by the appearance of stereotypic cataleptic behavior in rats following the neuroleptic treatment. Catalepsy was determined by two methods: (i) by measuring the time it took an animal hanging on a cage wall to move its hind legs and reach a flat surface (the “wall” test); and (ii) rats were placed on a flat surface with their anterior limbs leaning on a flat bar (5.5 cm height) resembling a piano playing position. Catalepsy was determined by the time it took an animal to descend and reach the flat surface (the “piano” test). The maximum time of follow up was 2 minutes and these measurements were performed hourly and individually for each animal. These tests provide an assessment of central dopamine (DA) blocking activity and are acceptable criteria for extrapyramidal symptoms induced by anti-psychotic drugs [10].
(§8) A control animals group was treated with the vehicle (lactic acid) only.

B16 MDR = experiment: Proliferation test, B16 MDR cells; type: cell-based, murine; settings: Mus musculus; linear regression of survival percentage
Method: as §1, §2, §3

HL 60 MX2 (MDR) = experiment: Proliferation test, HL 60 MX2 (MDR) cells; type: cell-based; settings: Homo sapiens, HL60/MX2; linear regression of survival percentage
Method: as §1, §2, §3

prolactin = experiment: Prolactin blood level in rats (enzyme immunometric assay); type: in vivo, rat; settings: i.p.; measured at 0, 60 and 120 min after treatment
Text: Prolactin secretion: Typical neuroleptics induce hyperprolactinemia, which is frequently associated with gallactorehea and impaired gonadal and sexual function. The measurement of the circulatory plasma prolactin level was therefore used as a sensitive biochemical marker for the psychotropic activity of the known neuroleptics and the chemical conjugates of the present invention, following intraperitoneal or oral administration thereof. Thus, blood was collected from the punctured eye orbital of rats under ether anesthesia and the assay was performed using Millennia, rat prolactin enzyme immunometric assay-kit (DPC, USA).

3T3 = experiment: Proliferation test, 3T3 fibroblasts; type: cell-based; settings: Mus musculus, NIH3T3; linear regression of survival percentage
Method: as §1, §2, §3

HT-29 = experiment: Proliferation test, HT-29 cells; type: cell-based; settings: Homo sapiens, linear regression of survival percentage
Method: as §1, §2, §3

rats [2] = experiment: Behavioral criteria: sedation and mobility score in rats; settings: score 0-3; for sedation and mobility score, 30 min / sedation and mobility score, 60 min / sedation and mobility score, 90 min / sedation and mobility score, 120 min / sedation and mobility score, 180 min / sedation and mobility score, 240 min: i.p., 5 mg/kg perphenazine, 7.5 mg/kg fluphenazine or equimolar conjugate; for Sedation score: oral, 4-6 hours after treatment
Method: The effect of the administration of the tested compound on animals behavior was measured by evaluating the degree of animal sedation and mobility following the treatment described hereinabove, using a score of from 0 to 3. A score of 0 represents active and mobile animals, 1 represents calm and mobile animals, 2 represents calm and immobile animals and 3 represents completely ataxic and non-alert animals.

PC-3 = experiment: Proliferation test, PC-3 cells; type: cell-based; settings: Homo sapiens, linear regression of survival percentage
Method: as §1, §2, §3

ICR mice = experiment: Acute toxicity in vivo (LD50) in mice; settings: single intraperitoneal dose, compared with perphenazine (FIG. 21)
Method: (§4) Toxicity: In vitro toxicity was determined by measuring the effect of the tested compounds (either known neuroleptics or the chemical conjugates of the invention) on primary cultures of neurons and whole brain neuron and glia cells obtained from the brains of neonatal mice. In vitro toxicity of perphenazine and its chemical conjugate AN 168 was also determined with rat myocytes. Acute toxicity in vivo as determined by the LD50 was evaluated on 2 months old ICR mice following the administration of a single intraperitoneal bolus-dose of drug.
(§5) The in vivo toxicity of perphenazine and AN 167 was evaluated following the intraperitoneal administration of a single dose thereof to mice.

in vivo = settings: ICR, mouse, in vivo, ip
Method: as §4, §5

Jurkat T lymphoma cells = experiment: Proliferation / viability test, Jurkat T lymphoma cells; type: cell-based; settings: Homo sapiens
Method: as §1, §2, §3

MES SA = experiment: Proliferation test, MES SA cells; type: cell-based; settings: Homo sapiens, linear regression of survival percentage
Method: as §1, §2, §3

B16 = experiment: Proliferation test, B16 melanoma cells; type: cell-based, murine; settings: for IC50: Mus musculus, B16, linear regression of survival percentage
Method: as §1, §2, §3

U-937 = experiment: Proliferation test, U-937 cells; type: cell-based; settings: Homo sapiens, linear regression of survival percentage
Method: as §1, §2, §3

HL 60 = experiment: Proliferation test, HL 60 cells; type: cell-based; settings: Homo sapiens, linear regression of survival percentage
Method: as §1, §2, §3

Normal rat fibroblasts = experiment: Proliferation test, normal rat fibroblasts; type: cell-based; settings: Fibroblast, linear regression of survival percentage
Method: The primary cultures of rat fibroblasts were obtained from neonatal rats using known procedures.
as §2, §3

C6 rat glioma cells [3] = experiment: DNA fragmentation in C6 rat glioma cells (propidium iodide flow cytometry); type: cell-based; settings: Cisplatin 30 μM; perphenazine 25 and 50 μM; AN 168 25, 50 μM (FIG. 18)
Method: Apoptosis and DNA fragmentation: Fragmentation of cell nuclei was studied by flow cytometric analysis of propidium iodide-stained cells. This analysis was performed using a FACScan (Becton Dickinson, Mountain View, Calif.) equipped with an argon ion laser adjusted to an excitation wavelength of 480 nm and with a Doublet Discrimination Module (DDM). Lysis II (Becton Dickinson) software was used for data acquisition. Apoptotic nuclear changes were evaluated according to the criteria of Nicolletti et al..
The DNA fragmentation was determined by the propidium iodide flow cytometric method described hereinabove.

rats [4] = experiment: Catalepsy in rats, “piano” test, oral administration; type: in vivo, rat; settings: oral, 10 and 20 mg/kg perphenazine or equimolar doses of conjugate
Method: To this end, the induced catalepsy, the prolactin blood levels and the animal behavior were measured as described hereinabove, following oral administration of either AN 168 or perphenazine alone to rats. Animals, divided 5 per cage, were treated by oral administration of perphenazine or AN-168 dissolved in 1% lactic acid. Control animals received vehicle (lactic acid) only.
The catalepsy induced by oral administration of various concentrations of AN 168 and perphenazine was measured by the “wall” test and the “piano” test described hereinabove. The time course of catalepsy was measured 4-24 hours following oral administration of 2.5, 5, 10 and 20 mg/kg perphenazine and respective equimolar doses of 3.5, 7, 14 and 28 mg/kg AN-168. The total catalepsy represents the sum of average catalepsy per treated group during the 4-24 hours of follow-up.

mice = experiment: Catalepsy in mice (bar between two cages); type: in vivo, mouse; settings: adult male mice, 1.5 mg/kg perphenazine or equimolar dose (FIG. 7a)
Method: Young adult male and female mice were purchased from Harlan, Israel. The animals were housed for 4-7 days under controlled conditions prior to experimentation. Experiments were conducted in a double blind procedure. In each experiment various treatment groups (about 10 animals each) were tested.
Catalepsy in mice: The appearance of stereotypic cataleptic behavior in mice following the neuroleptic treatment was measured in two different sets of experiments.
The catalepsy was determined using a system of two cages and a bar therebetween. The mouse was hung in the middle of the bar, and the percentage of animals reaching the target within 2 minutes was monitored 1 hour, 2 hours and 3 hours following the treatment.
The catalepsy was determined using the system described hereinabove. The mouse was hung in the middle of the bar, and the time it took the animal to reach the target was measured.

rats [5] = settings: rat, in vivo, ip, 5 mg/kg
Method: as §6, §7, §8

rat myocytes = settings: Wistar, rat
Method: as §4

C6 rat glioma cells [6] = experiment: Viability of C6 rat glioma cells (neutral red); type: cell-based; settings: Rattus norvegicus, Glioma cell; 24 hours treatment, neutral red, up to 100 μM (FIG. 14)
Method: as §2
The cells were sub-cultured and the tested compounds were added thereto in increasing concentrations, up to 100 μM.

[7] = linear regression of survival percentage, read-out: IC50, JURKAT

With `CCCC(=O)OCCN1CCN(CCCN2c3ccccc3Sc3ccc(Cl)cc32)CC1` [AN-167, Perphenazine Butyrate] the IC50 (MES SA DX5 (MDR)) was 20.9 µM, the “average of total catalepsy as percentage of the perphenazine-induced catalepsy” value (rats [1]; equimolar doses, four independent experiments (FIG. 6)) was “lower catalepsy as compared with perphenazine” and the “induced catalepsy, SAR studies” value (rats [1]; i.p., 5 mg/kg perphenazine and equimolar conjugates, compared with perphenazine (FIG. 2)) was “significant reduction of the induced catalepsy”. For the same molecule, the total catalepsy (rats [1]; i.p., 5 mg/kg perphenazine and equimolar conjugates, sum of determinations at 0, 60, 120 min (FIG. 1a)) was “did not induce catalepsy at all”, the total catalepsy (rats [1]; i.p., 5 mg/kg perphenazine, 7.5 mg/kg fluphenazine, equimolar conjugates, sum 0-420 min, normalized to parent drug (FIG. 3a)) was “reduced catalepsy significantly” and the “time course of catalepsy” value (rats [1]; i.p., over a period of 7 hours (FIGS. 4a, 4b)) was “reduced catalepsy as compared with perphenazine”. For the same molecule, the IC50 (B16 MDR) was 41.5 ± 1.8 µM, the IC50 (HL 60 MX2 (MDR)) was 19.9 µM and the “time at which prolactin blood level peaked” value (prolactin) was 60 min. For the same molecule, the IC50 (3T3) was 21.7 µM, the IC50 (HT-29) was 13.3 ± 2.4 µM and the “sedation and mobility score, 30 min” value (rats [2]) was 0. The “sedation and mobility score, 60 min” value (rats [2]) was 1, the “sedation and mobility score, 90 min” value (rats [2]) was 1 and the “sedation and mobility score, 120 min” value (rats [2]) was 2. The “sedation and mobility score, 180 min” value (rats [2]) was 2, the “sedation and mobility score, 240 min” value (rats [2]) was 2 and the IC50 (PC-3) was 49.1 µM. The “time course of mortality” value (ICR mice) was “delayed”, the LD50 at 2 weeks (in vivo) was 120 mg/kg and the IC50 (Jurkat T lymphoma cells; [7]) was 11.4 µM. For the same molecule, the IC50 (MES SA) was 17.2 µM, the IC50 (B16) was 17.3 ± 4.5 µM and the “effect on the proliferation of B16 murine melanoma cells” value (B16; representative experiment (FIG. 13)) was “relatively active as anti-proliferative drugs”. The IC50 (U-937) was 23.3 µM, the IC50 (HL 60) was 17.3 µM and the IC50 (Normal rat fibroblasts) was 31.6 µM.
Molecule `OCCN1CCN(CCCN2c3ccccc3Sc3ccc(Cl)cc32)CC1` [Perphenazine, perphenazine, reference compound] has an IC50 (MES SA DX5 (MDR)) of 16.2 µM, an IC50 (B16 MDR) of 18.4 ± 5.4 µM and an IC50 (HL 60 MX2 (MDR)) of 22.6 µM. For the same molecule, the DNA fragmentation (C6 rat glioma cells [3]) was “induced a dramatically increase in DNA fragmentation”, the “muscular rigidity and tachypnea” value (rats [4]) was “muscular rigidity and tachypnea were observed” and the “time at which prolactin blood level peaked” value (prolactin) was 60 min. The IC50 (3T3) was 26.6 µM, the IC50 (HT-29) was 8.85 ± 2.7 µM and the “sedation and mobility score, 30 min” value (rats [2]) was 1. For the same molecule, the “sedation and mobility score, 60 min” value (rats [2]) was 2, the “sedation and mobility score, 90 min” value (rats [2]) was 2 and the “sedation and mobility score, 120 min” value (rats [2]) was 3. The “sedation and mobility score, 180 min” value (rats [2]) was 2, the “sedation and mobility score, 240 min” value (rats [2]) was 2 and the Sedation score (rats [2]; 2.5 mg/kg) was 0. The Sedation score (rats [2]; 5 mg/kg) was 1, the Sedation score (rats [2]; 10 mg/kg) was 2 and the Sedation score (rats [2]; 20 mg/kg) was 3. For the same molecule, the IC50 (PC-3) was 23.1 ± 2.3 µM, the “catalepsy: percentage of animals reaching the target within 2 minutes” value (mice) was “higher catalepsy” and the LD50 at 2 weeks (in vivo) was 109 mg/kg. For the same molecule, the “time at which catalepsy peaked” value (rats [5]; male) was 2 h, the total catalepsy (rats [5]) was “catalepsy was induced” and the “decrease in cells viability” value (rat myocytes) was 20%. It also gave an IC50 (Jurkat T lymphoma cells; alamar blue method (FIG. 15), read-out: IC50, Jurkat T lymphoma cells viability) of 16 µM, an IC50 (Jurkat T lymphoma cells; [7]) of 11.3 µM and an IC50 (MES SA) of 15.3 µM. The IC50 (B16) was 12.5 ± 1.29 µM, the IC50 (C6 rat glioma cells [6]) was 19.2 µM and the IC50 (U-937) was 21.3 µM. For the same molecule, the IC50 (HL 60) was 19.8 µM.
